Values quoted from earlier work in patent US20150366901A1, “Methods of Treating Heart Failure” (The Trustees of the University of Pennsylvania, priority 2013, published 2015).

How the values were obtained:
[1] = nitrite formed from nitrate by oral cavity commensal bacteria
[2] = system: old mice; conditions: supplementation for 3 weeks, 478 AU before, young counterparts 332 AU
[3] = system: healthy volunteers; conditions: ingestion of 8 mmol, 3 hours post-ingestion

O=[N+]([O-])O [nitrate]
half-life in plasma (circulating nitrate): ~5 h | share of circulating nitrate actively taken up by the salivary glands (concentrated in saliva, rest excreted by the kidneys): Up to 25%

O=NO [nitrite]
oral bioavailability [1]: > 95%

O=NO [sodium nitrite]
aortic pulse wave velocity (PWV) after supplementation [2]: 384 AU

inorganic nitrate
aortic pulse wave velocity [3]: decrease in aortic pulse wave velocity
